Key:
STZ-rats [1] = experiment: Von Frey filament test in STZ diabetic rats; assay type: in vivo, rat; conditions: day 20 post-STZ; SDF-1α 10, 30, 100 μg/kg, IL-6 10 μg/kg s.c.
Experimental: Eight week-old male Sprague Dawley rats (Janvier, Le Genest Saint Isle, France) were randomly distributed in 6 experimental groups (n=10) as shown below.
Diabetes was induced by intravenous injection of a buffered solution of streptozotocin (Sigma, L'Isle d'Abeau Chesnes, France) at a dose of 55 mg/kg. STZ was prepared in 0.1 mol/l citrate buffer pH 4.5. The control group received an equivalent volume of citrate buffer. The day of STZ injection was considered as D0.
Treatment with SDF-1α with IL-6 or their matched vehicle was performed on daily basis from D11 to D40.
The rat was placed on a metallic grid floor. The nociceptive testing was done by inserting the Von Frey filament (Bioseb, France) through the grid floor and applying it to the plantar surface of the hind paw. A trial consisted of several applications of the different von Frey filaments (at a frequency of 1-1.5 s). The Von Frey filaments were applied from filament 10 g to 180 g. The pressure that produces a brisk withdrawal of hind paw was considered as threshold value. Cuttoff value was set to 180 g.

STZ-rats [2] = experiment: STZ diabetic neuropathy, morphometric analysis of sciatic nerve and skin biopsy; assay type: in vivo, rat; conditions: day 40 post STZ; for density of intra-epidermal nerve fibers: vs vehicle
Experimental: Morphometric analysis was performed at the end of the study. The animals were anesthetized by IP injection of 60 mg/kg Imalgéne 500®. A 5 mm-segment of sciatic nerve was excised for histology. The tissue was fixed overnight with 4% glutaraldehyde (Sigma, L'Isle d'Abeau-Chesnes, France) solution in phosphate buffer solution (pH 7.4) and maintained in 30% sucrose at +4° C. until use. The nerve sample was fixed in 2% osmium tetroxide (Sigma) solution in phosphate buffer solution for 2 h, dehydrated in serial alcohol solution, and embedded in Epon. Embedded tissues were then placed at +70° C. during 3 days of polymerization. Transverse sections of 1.5 μm thickness were obtained using a microtome. They were stained with a 1% toluidine blue solution (Sigma) for 2 min, dehydrated and mounted in Eukitt.
Analysis was performed on the entire surface of the nerve section using a semi-automated digital image analysis software (Biocom, France). Once extraneous objects had been eliminated, the software reported the total number of myelinated fibers. The number of degenerated fibers was then counted manually by an operator. Myelinated fibers without axons, redundant myelin and fibers showing sheaths with too large thickness in respect to their axonal diameter were considered as fibers undergoing processes of degeneration. The number of non-degenerated fibers was obtained by subtraction of the number of degenerated fibers.
Morphological analysis was performed only on fibers considered as non-degenerated. For each fiber, the axonal and myelin sizes were reported in surface area (μm^2). These two parameters were used to calculate the equivalent area of g-ratio (axonal diameter/fiber diameter) of each fiber (i.e., [A/(A+M)]^0.5, A=axonal area, M=myelin area), indicative of the relative myelin sheath thickness.
In addition, a 5-10 mm diameter area of skin was punch-biopsied from the hindpaw. Skin samples were immediately fixed overnight in paraformaldehyde at 4° C., incubated (overnight) in 30% sucrose in 0.1 M PBS for cryoprotection, embedded in OCT and frozen at −80° C. until cryocut.
50 μm-thick cryosections were then cut vertical to the skin surface with a cryostat. Free-floating sections were incubated for 7 days in a bath of rabbit anti-protein gene product 9.5 (1:10000; Ultraclone, Isle of Man, UK) at 4° C. The sections were then processed to reveal immunoreactivity according to the ABC peroxidase method. Briefly, they were incubated in for 1 h with biotinylated […] antibody (1:200), then 30 min in the avidin biotinylated complex at room temperature. Peroxidase activity was visualized using DAB system. Sections were then counterstained with eosin or hematoxylin. Sections were dehydrated, clear with bioclear and mounted on eukitt. Photos of microscope fields were performed at 20× power magnification view using Nikon digital camera at focal distance of 12.9 mm. The number of intra-epidermal nerves on 3 microscope fields of […] (544×408 μm) each was counted by the experimenter on computer screen.
Global analysis of the data was performed using one factor or repeated measure analysis of variance (ANOVA) and one-way ANOVA. When ANOVA indicated significant difference, Fisher Protected Least Significant Difference was used as post-hoc test to compare experimental groups with the group of diabetic rats treated with the vehicle. The level of significance was set at p≦0.05. Results are expressed as mean ±standard error of the mean (s.e.m.).

[3] = tested on: primary mixed cortical cultures stimulated with LPS; experiment: Cytokine release (TNF-α, IL-6) from LPS stimulated primary mixed cortical cultures; assay type: cell-based, mouse
Experimental: Culturing of primary cells was performed as described (Lubetzki et al., 1993) using brain tissue from embryos isolated from NMRI mice at 16 days post-coitum. Cerebral hemispheres were dissected from embryo brains, dissociated via trypsin digestion and the single cell suspension was seeded at 5×10^4 cells in 50 μl myelination medium per well onto BioCoat® poly-L-lysine coated 96-well plates (356516, Becton Dickinson). The myelination medium consisted of Bottenstein-Sato medium (Bottenstein and Sato, 1979; Sadir et al., 2001), supplemented with 1% FCS, 1% penicillin-streptomycin solution (Seromed) and recombinant platelet-derived growth factor AA (PDGF-AA, R&D Systems) at 10 ng/mL.
For testing the effects of SDF-1α and SDF-1α variant (as defined in SEQ ID NO: 4) on LPS stimulated cultures, cells were allowed to grow for two weeks. At day 14 cells were pre-incubated with increasing concentrations (0.001, 0.1 and 10 ng/ml) of the corresponding proteins into 25 μl of medium for three hours at 37° C. and 10% CO2. LPS was then supplemented to the cells at the concentration of 5 ng/ml into 25 μl of medium to obtain a final volume of 100 μl and incubated for 48 hours. Supernatants were collected at day 16 and the levels of TNF-α and IL-6 (the major cytokines released by activated microglia) were measured via specific ELISAs purchased from R&D systems (DuoSet mouse TNF-α ELISA DY410, mouse IL-6 ELISA DY406).
Global analysis of the data was performed using one-way ANOVA. Dunnett's test was used further, and data were compared to the “untreated cells”. The level of significance was set at a: p<0.001; b or **: p<0.01; c or *: p<0.05; d: p<0.1. The results were expressed as mean ±standard error of the mean (s.e.m.).

[4] = SDF-1α 10, 30, 100 μg/kg, IL-6 10 μg/kg s.c.
[5] = SDF-1α especially 10 or 30 μg/kg, IL-6 10 μg/kg s.c.
[6] = pre-incubation 3 h (SDF proteins 0.001, 0.1, 10 ng/ml; IL-10 10 ng/ml; dexamethasone 25 pM), then LPS 5 ng/ml 48 h, ELISA, compared to untreated cells

“IL-6: reference (positive) control compound in nerve crush and STZ models [reference compound]” was tested, and the “threshold value in Von Frey test vs vehicle-treated diabetic rats” value (STZ-rats [1]) was “significant increase”, the “number of degenerated fibers in the sciatic nerve” value (from here on “number of degenerated fibers”) (STZ-rats [2]; [4]) was “significantly reduced population of degenerated fibers” and the “density of intra-epidermal nerve fibers” value (STZ-rats [2]; [4]) was “markedly prevented”. The “g-ratio (relative myelin thickness) vs STZ/Vehicle group” value (STZ-rats [2]; [5]) was “significant reduction”.
In the case of “SDF-1α: Human recombinant chemokine SDF-1α (SEQ ID NO: 1), produced in house, expressed in E. Coli cells”, the “threshold value in Von Frey test vs vehicle-treated diabetic rats” value (STZ-rats [1]) is reported as “significant increase”, the “g-ratio (relative myelin thickness) vs STZ/Vehicle group” value (STZ-rats [2]; 100 μg/kg s.c.) is reported as “did not reach the significance level” and the “number of degenerated fibers” value (STZ-rats [2]; [4]) is reported as “reduction of degenerated fibers population”. For the same substance, the “density of intra-epidermal nerve fibers” value (STZ-rats [2]; [4]) was “significantly greater density”, the “g-ratio (relative myelin thickness) vs STZ/Vehicle group” value (STZ-rats [2]; [5]) was “significantly reduced” and the “number of degenerated fibers” value (STZ-rats [2]; lowest dose 10 μg/kg s.c. (best effect)) was “reached the significance level”. For the same substance, the “levels of IL-6 secretion” value [3, 6] was “significantly decreased”, the “levels of TNF-α secretion” value [3, 6] was “significantly decreased” and the “best concentration for decrease of TNF-α and IL-6 secretion” value ([3]; tested 0.001, 0.1 and 10 ng/ml, LPS 5 ng/ml 48 h) was 10 ng/mL.

Source: patent US20080253996A1, “Use of Sdf-1 for the Treatment and/or Prevention of Neurological Diseases” (LABORATORIES SERONO SA, priority 2005, published 2008)
